Laboratory results: patent publication US12291534B2, “Aminonorbornane derivative and manufacture method therefor and use thereof” (TRANSTHERA SCIENCES (NANJING), INC., priority 2018, dated 2025)

Tests used:
TMD-8 = assay: In vitro tumor cell proliferation inhibition (CellTiter-Glo), TMD-8; assay type: cell-based, human
Procedure: (§1) 2. Experiment on In Vitro Tumor Cell Proliferation Inhibition (1) Method • The tumor cell line (TMD-8/OCY-LY10) was suspended in RPMI1640+FBS10% and cultured in an incubator (37° C. 5% CO2). Cells were passaged periodically, and cells at logarithmic growth phase were collected for plating. • Cell staining was performed with trypan blue and viable cells were counted. • Cell concentration was adjusted to 7000 cells/well with medium. • 90 μL of cell suspension was added to a 96-well plate and cell-free culture medium was added to the blank control wells. • Cells in the 96-well plate were incubated overnight in an incubator (37° C., 5% CO2, 100% relative humidity). • Preparation of 400× compound storage plates: test compounds and reference drug were each dissolved in DMSO and 3× diluted from the highest concentration (400 μM) to the lowest concentration (0.61 μM). • Preparation of 10× compound working solutions: 78 μL of cell culture medium was added to a V-bottom 96-well plate, and 2 μL of the compound was pipetted from the 400× compound storage plate into the 96-well plate. Vehicle control wells and blank control wells were added with 2 μL of DMSO. […] Inhibition rates of compounds at different concentrations were calculated in Excel, followed by plotting the inhibition curves and calculating IC50 values with GraphPad Prism. […]

OCI-LY10 = assay: In vitro tumor cell proliferation inhibition (CellTiter-Glo), OCI-LY10; assay type: cell-based, human
Procedure: as §1

BTK (C481S) = BTK (C481S) (Homo sapiens (Human), UniProt Q06187, C481S); assay: pBTK inhibition in HEK293 cells transfected with BTK(C481S) (ELISA); assay type: cell-based; conditions: 2 h incubation
BTK (C481S), sequence (Q06187 whole entry C481S): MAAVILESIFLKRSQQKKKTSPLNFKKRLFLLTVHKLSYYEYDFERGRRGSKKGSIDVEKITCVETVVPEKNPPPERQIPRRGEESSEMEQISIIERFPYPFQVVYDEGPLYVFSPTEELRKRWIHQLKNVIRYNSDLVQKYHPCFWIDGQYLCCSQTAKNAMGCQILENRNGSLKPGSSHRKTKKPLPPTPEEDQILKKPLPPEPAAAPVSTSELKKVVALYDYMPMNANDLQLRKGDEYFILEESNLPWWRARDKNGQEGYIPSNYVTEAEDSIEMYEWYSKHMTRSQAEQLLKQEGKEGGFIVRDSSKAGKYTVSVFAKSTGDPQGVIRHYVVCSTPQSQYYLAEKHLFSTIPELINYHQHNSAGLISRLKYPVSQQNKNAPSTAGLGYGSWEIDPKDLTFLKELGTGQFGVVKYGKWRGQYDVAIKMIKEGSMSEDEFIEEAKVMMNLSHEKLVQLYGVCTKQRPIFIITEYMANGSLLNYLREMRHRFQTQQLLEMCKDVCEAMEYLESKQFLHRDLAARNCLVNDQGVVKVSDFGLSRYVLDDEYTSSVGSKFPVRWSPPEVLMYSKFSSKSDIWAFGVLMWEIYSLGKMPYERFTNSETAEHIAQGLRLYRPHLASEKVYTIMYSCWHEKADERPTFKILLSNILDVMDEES
Procedure: For positive (high signal) controls, cells were treated with 0.5% DMSO alone.

OCI-LY10 xenograft tumor = OCI-LY10 xenograft tumor model in CB17/SCID mice; assay type: in vivo; conditions: for anti-tumor activity (in words): OCI-LY10 xenograft tumor model
Procedure: (§2) CB17/SCID female mice with serious immune deficiency were purchased from Beijing Vital River Laboratory Animal Technology Co., Ltd. and bred in SPF animal houses. Human OCI-LY10 cells (Shanghai Junrui-UFBN0102) were cultured in an RPMI 1640 culture medium containing 10% fetal bovine serum, 100 U/mL penicillin and 100 μg/mL streptomycin through monolayer culture in vitro in an incubator (37° C. 5% CO2). Routine treatment was performed twice a week for passaging. At a cell saturation of 80%-90% and a required number, the cells were harvested and counted, 0.2 mL (1×10^7) of OCI-LY10 cells (together with matrigel at a volume ratio of 1:1) were subcutaneously inoculated into the right back of each mouse, and the tumor size could be measured about one week after inoculation. Tumor size was measured using a vernier caliper and tumor volume was calculated using the following formula: tumor volume=(length×width^2)/2.

TMD-8 xenograft tumor = TMD-8 xenograft tumor model in CB17/SCID mice; assay type: in vivo; conditions: for anti-tumor activity (in words): TMD-8 xenograft tumor model
Procedure: as §2, with “TMD-8” for “OCI-LY10”, “Junrui-UFBN1682)” for “Junrui-UFBN0102)”, “C.,” for “C.”, “volume […].” for “volume=(length×width^2)/2.”

Nc1nccn2c(C34CCC(NC(=O)CN5CCOCC5)(CC3)C4)nc(-c3ccc(C(=O)Nc4cc(C(F)(F)F)ccn4)cc3)c12 [Compound A-10-10, 4-(8-amino-3-(4-(2-morpholinoacetamido)bicyclo[2.2.1]heptan-1-yl)imidazo[1,5-a]pyrazin-1-yl)-N-(4-(trifluoromethyl)pyridin-2-yl)benzamide]
inhibition of tumor cell proliferation (in words) (TMD-8): strong inhibition activity
inhibition of tumor cell proliferation (in words) (OCI-LY10): strong inhibition activity
IC50 (BTK (C481S)): 63 nM
disappearance of xenograft tumors (OCI-LY10 xenograft tumor; 25 mg/kg bid, after 28 days of administration): disappeared completely
disappearance of xenograft tumors (OCI-LY10 xenograft tumor; 50 mg/kg bid, after 21 days of administration): completely disappeared
anti-tumor activity (in words) (OCI-LY10 xenograft tumor): extremely strong anti-tumor activity
tolerance of tumor-bearing mice (OCI-LY10 xenograft tumor; all dosages (25, 50 mg/kg bid)): good tolerance
body weight of tumor-bearing mice (OCI-LY10 xenograft tumor; all treatment groups): no significant weight loss
fraction of xenograft tumors disappeared (TMD-8 xenograft tumor; 50 mg/kg bid, after 27 days of administration): ⅝
anti-tumor activity (in words) (TMD-8 xenograft tumor): extremely strong anti-tumor activity
tolerance of tumor-bearing mice (TMD-8 xenograft tumor; all dosages (25, 50 mg/kg bid)): good tolerance
body weight of tumor-bearing mice (TMD-8 xenograft tumor; all treatment groups): no significant weight loss

C=CC(=O)N1CCC[C@@H](n2nc(-c3ccc(Oc4ccccc4)cc3)c3c(N)ncnc32)C1 [Ibrutinib, reference compound]
inhibition of tumor cell proliferation (in words) (TMD-8): strong inhibition activity
inhibition of tumor cell proliferation (in words) (OCI-LY10): strong inhibition activity
anti-tumor activity (in words) (OCI-LY10 xenograft tumor): extremely strong anti-tumor activity
anti-tumor activity (in words) (TMD-8 xenograft tumor): extremely strong anti-tumor activity
